From patent US20260115190A1, “DISPERSIONS OF ETRUMADENANT” (Arcus Biosciences, Inc., priority 2022, published 2026)

Experiments:
[1] = Drug-drug interaction study with itraconazole; type: in vivo, humans; conditions: with coadministration of itraconazole
Protocol: An open-label, fixed-sequence, 2-period drug-drug interaction (DDI) study was designed to evaluate the effect of multiple doses of a strong inhibitor of CYP3A4 and P-gp on the single-dose PK of etrumadenant in humans. Etrumadenant was supplied as 25 mg capsules. Itraconazole was used as the representative strong inhibitor of CYP3A4 and P-gp. It was supplied as 10 mg/mL oral solution, Sporanox® by Janssen Pharmaceuticals (or generic equivalent). Twenty (20) healthy, adult male and female (of non-childbearing potential) participants were enrolled. Screening of participants occurred within 28 days prior to the first dosing.
On Day 1 of Period 1, a single 150 mg dose of etrumadenant was orally administered under fasting conditions (i.e., at least 10 hours of fasting prior to dosing and at least 4 hours postdose). PK sampling for etrumadenant and its metabolites was taken predose and up to 120 hours postdose. There was a washout of 5 days between the etrumadenant dose in Period 1 and the first itraconazole dose in Period 2.
In Period 2, 200 mg itraconazole was orally administered twice a day (BID) on Day 1 and once a day (QD) for 9 consecutive days (on Days 2 through 10) with a single 150 mg dose of etrumadenant orally administered 1 hour after itraconazole dosing on Day 6. Itraconazole was administered under fasting conditions. On Day 6, participants fasted for at least 10 hours prior to and at least 4 hours post etrumadenant dosing. PK sampling for etrumadenant and its metabolites was taken predose and up to 120 hours after etrumadenant dosing. PK sampling for itraconazole and 1-hydroxy-itraconazole was collected on Days 5, 6, 7, 9, and 11.
Itraconazole was administered twice on the first day of Period 2 as a loading dose to accelerate CYP3A inhibition and the inhibition was then maintained by administering itraconazole 200 mg QD for 9 consecutive days. A 200 mg BID dose level is expected to provide similar inhibition to a 400 mg QD dose. Although itraconazole reaches steady state within approximately 15 days, it has been established that QD administration of 200 mg itraconazole for 3 to 5 days allows maximum CYP3A inhibition sufficient to detect a DDI. […] As such, administration of itraconazole for at least 4 days is considered sufficient in DDI studies as a CYP3A4 and P-gp inhibitor. To maintain the level of inhibition, itraconazole was administered throughout PK sampling of etrumadenant (i.e., through Day 10 of Period 2). In addition, the itraconazole oral solution was administered under fasting conditions to maximize bioavailability.
Participants were housed on Day −1 of Period 1, at the time indicated by the clinical research unit (CRU), until after the 120-hour blood draw and completion of study procedures in Period 2. Safety was monitored throughout the study by repeated clinical and laboratory evaluations. In this study, there were no discontinued participants. All participants who received at least one dose of study drug (including participants who terminated the study early) were asked to return to the CRU approximately 14 days after the last dose for follow-up procedures, and to determine if any adverse event (AE) had occurred since the last study visit. All adverse events reported in the study were mild and resolved without treatment.

P-gp = P-gp (Homo sapiens, UniProt P08183); conditions: 200 mg QD itraconazole for 5 days; reported in the literature; cited from earlier work
P-gp, sequence (P08183 whole entry): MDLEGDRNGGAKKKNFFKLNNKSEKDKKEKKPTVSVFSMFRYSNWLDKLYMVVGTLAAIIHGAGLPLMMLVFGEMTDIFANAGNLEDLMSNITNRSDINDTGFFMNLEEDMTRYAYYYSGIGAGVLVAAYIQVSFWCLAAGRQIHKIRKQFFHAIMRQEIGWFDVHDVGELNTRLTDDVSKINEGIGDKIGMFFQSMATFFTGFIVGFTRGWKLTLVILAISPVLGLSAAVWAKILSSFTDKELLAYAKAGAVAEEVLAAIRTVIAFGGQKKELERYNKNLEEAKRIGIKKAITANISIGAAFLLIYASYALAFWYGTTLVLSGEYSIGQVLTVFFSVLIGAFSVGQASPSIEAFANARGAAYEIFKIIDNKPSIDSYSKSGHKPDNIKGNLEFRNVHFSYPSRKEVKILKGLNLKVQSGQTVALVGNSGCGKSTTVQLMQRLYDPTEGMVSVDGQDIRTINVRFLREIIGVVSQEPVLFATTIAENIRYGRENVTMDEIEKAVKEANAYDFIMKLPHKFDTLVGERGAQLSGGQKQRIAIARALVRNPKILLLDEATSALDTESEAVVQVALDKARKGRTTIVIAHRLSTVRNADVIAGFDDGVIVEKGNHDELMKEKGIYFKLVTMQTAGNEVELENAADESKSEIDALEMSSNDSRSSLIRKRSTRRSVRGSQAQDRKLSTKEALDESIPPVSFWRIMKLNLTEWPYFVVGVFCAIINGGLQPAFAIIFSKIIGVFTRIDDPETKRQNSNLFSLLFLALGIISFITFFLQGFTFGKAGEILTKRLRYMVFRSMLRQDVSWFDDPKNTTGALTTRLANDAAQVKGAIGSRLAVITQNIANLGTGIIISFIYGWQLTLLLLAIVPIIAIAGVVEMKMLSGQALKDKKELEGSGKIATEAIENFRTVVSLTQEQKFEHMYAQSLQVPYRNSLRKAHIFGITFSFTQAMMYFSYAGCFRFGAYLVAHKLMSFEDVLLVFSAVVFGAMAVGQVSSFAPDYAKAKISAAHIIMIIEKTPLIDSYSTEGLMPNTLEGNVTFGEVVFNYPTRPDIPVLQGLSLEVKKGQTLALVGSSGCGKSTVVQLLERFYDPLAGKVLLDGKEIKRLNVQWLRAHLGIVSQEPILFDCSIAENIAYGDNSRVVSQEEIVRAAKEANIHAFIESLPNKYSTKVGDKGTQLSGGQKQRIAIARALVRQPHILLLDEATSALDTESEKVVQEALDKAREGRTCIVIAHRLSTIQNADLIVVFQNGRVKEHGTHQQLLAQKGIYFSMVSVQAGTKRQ

SMILES	decrease in metabolite-to-parent ratio MP AUC0-24 [1]	decrease in metabolite-to-parent ratio MP Cmax [1]	increase of oral digoxin AUC (P-gp)
Cc1c(C#N)cccc1-c1cc(-c2c[nH]nn2)nc(N)n1 [N-dealkylated etrumadenant]	approximately 87%	~90%	–
C[C@H]1O[C@@H](O[C@H]2[C@@H](O)C[C@H](O[C@H]3[C@@H](O)C[C@H](O[C@H]4CC[C@@]5(C)[C@H](CC[C@@H]6[C@@H]5C[C@@H](O)[C@]5(C)[C@@H](C7=CC(=O)OC7)CC[C@]65O)C4)O[C@@H]3C)O[C@@H]2C)C[C@H](O)[C@@H]1O [digoxin]	–	–	approximately 1.7 fold
